Test results as given in patent publication US8697692B2, “Pyrrolo [3,2-c] pyridine-4-one 2-indolinone protein kinase inhibitors” (Shanghai Hengrui Pharmaceutical Co., Ltd., priority 2006, dated 2014).

The compounds below were run on HUVEC cell (assay: Cell Proliferation Inhibition VEGF-R2 Assay (SRB method)). Details: Homo sapiens; HUVEC cells, 72 hours exposure, Sulforhodamine B; read-out: IC50 (VEGFR/HUVEC).
Type: cell-based, homo sapient
Method in brief: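 HUVECs grown to ~85% confluence in DMEM/F12 + 10% FBS, then exposed to 6–7 compound concentrations for 72 h at 37 °C, 5% CO2; vehicle controls received 0.5% DMSO medium.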

Q: `CCN(CC)CCN1CCc2[nH]c(/C=C3\C(=O)Nc4ncnc(Nc5ccc(F)c(Cl)c5)c43)c(C)c2C1=O` [Example 12, 4-(3-Chlor O-4-fluoro-phenylamino)-5-[5-(2-diethylamino-ethyl)-3-methyl-4-oxo-4,5,6,7-tetrahydro-1H-pyrrolo[3,2-c]pyridine-2-ylmethylene]-5,7-dihydro-pyrrolo[2,3-d]pyrimidin-6-one] was tested. Which IC50 did it give?
A: 3 µM

Q: For `Cc1c(/C=C2\C(=O)Nc3ccc(Cl)cc32)[nH]c2c1C(=O)N(CCN1CCOCC1)CC2` [Example 16, 2-(5-Chloro-2-oxo-1,2-dihydro-indol-3-ylidenemethyl)-3-methyl-5-(2-morpholin-4-yl-ethyl)-1,5,6,7-tetrahydro-pyrrolo[3,2-c]pyridin-4-one], which IC50 is on record?
A: 0.58 µM

Q: `Cc1c(/C=C2\C(=O)Nc3ncnc(Nc4ccc(F)c(Cl)c4)c32)[nH]c2c1C(=O)N(CCN1CCOCC1)CC2` [Example 24, 4-(3-Chloro-4-fluoro-phenylamino)-5-[3-methyl-5-(2-morpholin-4-yl-ethyl)-4-oxo-4,5,6,7-tetrahydro-1H-pyrrolo[3,2-c]pyridine-2-ylmethylenene]-5,7-dihydro-pyrrolo[2,3-d]pyrimidin-6-one] was tested. Which IC50 did it give?
A: 2.42 µM

Q: Which IC50 does the source give for `CCN(CC)CCN1CCc2[nH]c(/C=C3\C(=O)Nc4cccc(Br)c43)c(C)c2C1=O` [Example 30, 2-(4-Bromo-2-oxo-1,2-dihydro-indol-3-ylidenemethyl)-5-(2-diethylamino-ethyl)-3-methyl-1,5,6,7-tetrahydro-pyrrolo[3,2-c]pyridin-4-one] here?
A: 0.22 µM

Q: With `CCN(CC)CCN1CCc2[nH]c(/C=C3\C(=O)Nc4cccc(C5CCNCC5)c43)c(C)c2C1=O` [Example 31, 5-(2-Diethylamino-ethyl)-3-methyl-2-(2-oxo-4-piperidin-4-yl-1,2-dihydro-indol-3-ylidenemethyl)-1,5,6,7-tetrahydro-pyrrolo[3,2-c]pyridin-4-one] as the compound, how does the IC50 read?
A: 0.19 µM

Q: `CCN(CC)CCN1CCc2[nH]c(/C=C3\C(=O)Nc4cccc(-c5ccc(Cl)cc5F)c43)c(C)c2C1=O` [Example 34, 2-[4-(4-Chloro-2-fluoro-phenyl)-2-oxo-1,2-dihydro-indol-3-ylidenemethyl]-5-(2-diethylamino-ethyl)-3-methyl-1,5,6,7-tetrahydro-pyrrolo[3,2-c]pyridin-4-one] was tested. Which IC50 did it give?
A: 0.12 µM

Q: Which IC50 does the source give for `CCN(CC)CCN1CCc2[nH]c(/C=C3\C(=O)Nc4ccc(OC)cc43)c(C)c2C1=O` [Example 35, 5-(2-Diethylamino-ethyl)-2-(5-methoxy-2-oxo-1,2-dihydro-indol-3-ylidenemethyl)-3-methyl-1,5,6,7-tetrahydro-pyrrolo[3,2-c]pyridin-4-one] here?
A: 0.13 µM

Q: How did the IC50 turn out when `CCN(CC)CCN1CCc2[nH]c(/C=C3\C(=O)Nc4cccc(-c5cccc(Cl)c5F)c43)c(C)c2C1=O` [Example 36, 2-[4-(3-Chloro-2-fluoro-phenyl)-2-oxo-1,2-dihydro-indol-3-ylidenemethyl]-5-(2-diethylamino-ethyl)-3-methyl-1,5,6,7-tetrahydro-pyrrolo[3,2-c]pyridin-4-one] was run?
A: 0.11 µM

Q: Which IC50 does the source give for `CCN(CC)CCN1CCc2[nH]c(/C=C3\C(=O)Nc4cccc(CCO)c43)c(C)c2C1=O` [Example 37, 5-(2-Diethylamino-ethyl)-2-[4-(2-hydroxy-ethyl)-2-oxo-1,2-dihydro-indol-3-ylidenemethyl]-3-methyl-1,5,6,7-tetrahydro-pyrrolo[3,2-c]pyridin-4-one] here?
A: 0.11 µM

Q: With `CCN(CC)CCN1CCc2[nH]c(/C=C3\C(=O)Nc4cccc(-c5cccc(F)c5F)c43)c(C)c2C1=O` [Example 39, 5-(2-diethylamino-ethyl)-2-[4-(2,3-difluoro-phenyl)-2-oxo-1,2-dihydro-indol-3-ylidenemethyl]-3-methyl-1,5,6,7-tetrahydro-pyrrolo[3,2-c]pyridin-4-one] as the compound, how does the IC50 read?
A: 0.05 µM

Q: For `Cc1c(/C=C2\C(=O)Nc3ccc(Br)cc32)[nH]c2c1C(=O)N(CCN1CCCC1)CC2` [Example 40, 2-(5-Bromo-2-oxo-1,2-dihydro-indol-3-ylidenemethyl)-3-methyl-5-(2-pyrrolidin-1-yl-ethyl)-1,5,6,7-tetrahydro-pyrrolo[3,2-c]pyridin-4-one], which IC50 is on record?
A: 0.13 µM

Q: How did the IC50 turn out when `Cc1c(/C=C2\C(=O)Nc3cccc(CCO)c32)[nH]c2c1C(=O)N(CCN1CCOCC1)CC2` [Example 42, 2-[4-(2-Hydroxy-ethyl)-2-oxo-1,2-dihydro-indol-3-ylidenemethyl]-3-methyl-5-(2-morpholin-4-yl-ethyl)-1,5,6,7-tetrahydro-pyrrolo[3,2-c]pyridin-4-one] was run?
A: 0.28 µM

Q: With `Cc1c(/C=C2\C(=O)Nc3ncc(Br)cc32)[nH]c2c1C(=O)N(CCN1CCOCC1)CC2` [Example 50, 2-(5-Bromo-2-oxo-1,2-dihydro-pyrrolo[2,3-b]pyridin-3-ylidenemethyl)-3-methyl-5-(2-morpholin-4-yl-ethyl)-1,5,6,7-tetrahydro-pyrrolo[3,2-c]pyridin-4-one] as the compound, how does the IC50 read?
A: 1.16 µM

Q: With `Cc1c(/C=C2\C(=O)Nc3cccc(C4CCNCC4)c32)[nH]c2c1C(=O)N(CCN1CCOCC1)CC2` [Example 52, 3-Methyl-5-(2-morpholin-4-yl-ethyl)-2-(2-oxo-4-piperidin-4-yl-1,2-dihydro-indol-3-ylidenemethyl)-1,5,6,7-tetrahydro-pyrrolo[3,2-c]pyridin-4-one] as the compound, how does the IC50 read?
A: 0.26 µM

Q: With `Cc1c(/C=C2\C(=O)Nc3cccc(-c4cccc(F)c4F)c32)[nH]c2c1C(=O)N(CCN1CCCC1)CC2` [Example 59, 2-[4-(2,3-Difluoro-phenyl)-2-oxo-1,2-dihydro-indol-3-ylidenemethyl]-3-methyl-5-(2-pyrrolidin-1-yl-ethyl)-1,5,6,7-tetrahydro-pyrrolo[3,2-c]pyridin-4-one] as the compound, how does the IC50 read?
A: 0.3 µM
